“Also recorded” adds a separate entry of the source. Marks after values point to notes of the source that are not given here.
What was measured:
Qa-1^b = Qa-1^b (Mus musculus, UniProt P06339); assay: In vitro refolding of peptide with recombinant Qa-1^b protein and β2 microglobulin; type: binding; details: 10° C., four days; size exclusion, anion exchange, tetramer formation
Description: FIG. 4A-4D. MOG196 can bind to Qa-1^b and stimulate MOG196-specific Qa-1^b-restricted CD8^+ T cells. (A) MOG196 was incubated with recombinant Qa-1^b and β2 microglobulin in a protein refolding buffer at 10° C. under gentle agitation (60 rpm) for four days. The solution was separated by a size exclusion column. Peak “A” and “B” represented typical non-specific protein aggregates and correctly refolded MOG196/Qa-1^b monomer, respectively. (B) Monomers in peak B of panel “A” were further analyzed by an anion exchange chromatography. (C) Proteins in peaks “A”, “B1”, and “B2” were biotinylated and portions of the biotinylated proteins were incubated with streptavidin (SA) to examine formation of tetramers. The biotinylated proteins and corresponding tetramers were analyzed in a non-denature protein gel. Arrows show protein bands for MOG196/Qa-1^b monomers. “−”: without SA; “+”: with SA; “pk A”: peak A; “pk B1”: peak B1; “pk B2“ ” peak B2; “Std”: a protein standard. […] The CD8^+ T cells were analyzed for binding to Qa-1^b/MOG196 tetramer at days 0, 7, and 14. […]
MOG196 binds to Qa-1^b and activates MOG196—specific Qa-1^b—restricted CD8^+ T cells in vitro. […] Subsequently, the biotinylated proteins and streptavidin-conjugated tetramers were analyzed in a non-denature protein gel. […]

[1] = system: MOG196-specific Qa-1^b-restricted CD8^+ T cells; assay: In vitro stimulation of CD8+ T cells with MOG196-pulsed antigen-presenting cells, Qa-1^b/MOG196 tetramer staining; type: cell-based; details: weekly stimulation with MOG196-pulsed APCs from K^b−/−d^b−/− or C57Bl/6 mice; beginning on day 14
Description: FIG. 4A-4D. MOG196 can bind to Qa-1^b and stimulate MOG196-specific Qa-1^b-restricted CD8^+ T cells. (A) MOG196 was incubated with recombinant Qa-1^b and β2 microglobulin in a protein refolding buffer at 10° C. under gentle agitation (60 rpm) for four days. The solution was separated by a size exclusion column. Peak “A” and “B” represented typical non-specific protein aggregates and correctly refolded MOG196/Qa-1^b monomer, respectively. (B) Monomers in peak B of panel “A” were further analyzed by an anion exchange chromatography. (C) Proteins in peaks “A”, “B1”, and “B2” were biotinylated and portions of the biotinylated proteins were incubated with streptavidin (SA) to examine formation of tetramers. The biotinylated proteins and corresponding tetramers were analyzed in a non-denature protein gel. Arrows show protein bands for MOG196/Qa-1^b monomers. […] The CD8^+ T cells were analyzed for binding to Qa-1^b/MOG196 tetramer at days 0, 7, and 14. […]
Multichromatic flow cytometry: Briefly, about 0.5-1×10^6 cells in a FACS buffer (PBS containing 1% FBS and 0.05% sodium azide) were stained with various fluorescence-conjugated antibodies specific for the desired cell surface proteins or with tetramers at 4′C for 30 min. The stained cells were washed twice in the FACS buffer before being analyzed on a BD FACSAria II. […]

CD8^+ T cells = assay: IFN-γ Enzyme-linked ImmunoSpot of CD8+ T cells with C1R or C1R.Qa-1^b antigen-presenting cells; type: cell-based, K^b−/−D^b−/− mice; details: in the presence of C1R.Qa-1^b cells
Description: FIG. 1A-1C. Portion of CD8^+ T cells reactive to the pool of overlapping peptides (OLPs) covering the whole length of mouse MOG was Qa-1^b restricted. (A) A schematic view of the mouse MOG OLP library. 15mer peptides across the whole length of mouse MOG (247 amino acids) and overlapped by 11 amino acids were synthesized. A pool of the 59 OLPs (“MOG_pool”) at a concentration of 4.2 μg/ml for each peptide was then generated for stimulating CD8^+ T cells purified from K^b−/−D^b−/− mice. (B) Experimental design for Enzyme-linked ImmunoSpot assay in “C”: CD8^+ T cells purified from K^b−/−D^b−/− mice were stimulated with the MOG_pool in vitro on a weekly basis. Before being stimulated each time, the CD8^+ T cells were monitored for response to the MOG_pool, using IFN-γ Enzyme-linked ImmunoSpot, in the presence of either C1R or C1R.Qa-1^b cells as antigen presenting cells. (C) Enzyme-linked ImmunoSpot data on day 7 were shown and were representative of three independent experiments. The number at the upper left corner of each well is the absolute number of IFN-γ spot forming cells (SFCs) in the corresponding well (50,000 CD8 T cells/well).
FIG. 2A-2F. Recognition of multiple OLPs by the MOG_pool-reactive CD8^+ T cell lines depended on Qa-1^b. (A-D) MOG_pool-reactive CD8^+ T cell lines were generated as described in FIG. 1. […]

[2] = system: Qa-1^b/MOG196 tetramer^+CD8^+ T cells; assay: CD122 and Ly49 expression on Qa-1^b/MOG196 tetramer+ CD8+ T cells after immunization with MOG196-pulsed DC2.4 cells; type: in vivo, C57BL/6 mice; details: intravenous MOG196-pulsed DC2.4 cells at days 0 and 10, analysis ten days after last immunization
Excerpt: FIG. 7A-7G. Immunization with DCs pulsed with MOG196 activates Qa-1^b/MOG196 tetramer^+ cells that specifically accumulate in cervical lymph nodes. (A) C57BL/6 mice (5 mice/group) were immunized with MOG35-55 for EAE. […] (B) Representative plots of Qa-1^b/MOG196tetramer^+ cells among CD8^+ T cells in cervical lymph nodes and spleens. (C) Cumulative data of Qa-1^b/MOG196tetramer^+ cells from five mice. *P<0.05. Two-way ANOVA test. (D) Representative plots of I-A^b/MOG38-49 tetramer^+ cells among CD8^− T cells in cervical lymph nodes and spleens. (E) Cumulative data of I-A^b/MOG38-49 tetramer^+ cells from five mice. *P<0.05. Two-way ANOVA test. (F) Experimental design for “G”: C57BL/6 mice were intravenously immunized with MOG196-pulsed DC2.4 cells at days 0 and 10. […]
Multichromatic flow cytometry: Briefly, about 0.5-1×10^6 cells in a FACS buffer (PBS containing 1% FBS and 0.05% sodium azide) were stained with various fluorescence-conjugated antibodies specific for the desired cell surface proteins or with tetramers at 4′C for 30 min. The stained cells were washed twice in the FACS buffer before being analyzed on a BD FACSAria II.
CD122 and Ly49 were expressed in a portion of the Qa-1^b/MOG196 tetramer+ cells. […] Expression of these two markers on the Qa-I^b/MOG196 tetramer+ cells was analyzed.

- binding to Qa-1^b (refolding into MOG196/Qa-1^b/β2m monomer) (Qa-1^b): could bind to Qa-1^b
Sequence: IICYNWLHR [MOG196]
- Qa-1^b/MOG196 tetramer+ cells in CD8^+ T cell lines [1]: could be detected
- stimulation of an OLP105-reactive CD8^+ T cell line by truncated OLP105 peptides (IFN-γ SFCs) (CD8^+ T cells): minimal and optimal epitope in OLP105; also recorded: highest response
- tetramer+ cells expressing CD122 [2]: about 22.6%
- tetramer+ cells expressing both CD122 and Ly49 [2]: about 7.2%

Source: patent US20230312670A1, “MYELIN OLIGODENDROCYTE GLYCOPROTEIN-SPECIFIC PEPTIDE FOR THE TREATMENT OR PREVENTION OF MULTIPLE SCLEROSIS” (LOMA LINDA UNIVERSITY, priority 2016, published 2023)
